“Also recorded” adds a separate entry of the source.
Columns and labels:
[1] = tested on: mouse aortic ring vessel sprouting; assay: Mouse aortic ring assay; assay type: cell-based; settings: FIG. 13
Description: Mouse aorta ring assay was carried out using a slightly modified method described by Bellacen and Lewis (J Vis Exp, e1564). The 48-well plates were coated with 50 μL per well growth-factor reduced Matrigel at 37° C. for 30 min. The aorta of C57BL/6 mice was harvested, washed with cold serum-free F-12K medium 5-6 times, and cut to ˜1 mm length pieces. The aorta ring was put in the center area of Matrigel-coated 48-well plates, then another 100 μL Matrigel was added into each well and incubated at 37° C. for another 30 min. Complete endothelial EGM-2 culture medium (500 μL per well) with or without test compounds was added into each well, incubated in 37° C. incubators for 6-12 days, microscope image was recorded and analyzed by NIH Image J software.

LPS induced allodynia = assay: Von Frey mechanical nociceptive assay, LPS induced model of inflammatory pain; assay type: in vivo; settings: male SD rats, 10 mg/kg s.c. 60 minutes before intraplantar LPS, tested until 6 hours post LPS
Description: In vivo anti-allodynic effects of the COX-2/sEH dual inhibitors provided herein was assayed. An LPS induced model of inflammatory pain was used to compare the pain reducing activity of the COX-2/sEH dual inhibitors to combination and individual therapies.
Rats weighing approximately 250-300 grams are brought to the testing apparatus and allowed to acclimate for 30 minutes. After 30 minutes the rats are tested with a von Frey aesthesiometer for their non-treated baseline withdrawal latency to mechanical stimulation. The von Frey apparatus is a raised metal mesh platform that has clear acrylic chambers to enclose rats but allow them to move freely. A rigid tip von Frey probe is used to probe the plantar surface of the rat hind paw though the mesh floor to elicit a withdrawal response. The measures recorded are grams of force applied to the hind paw required to elicit a withdrawal. The pretreatment baseline score is considered the pain-free baseline (BL) and is assigned 100% for further response calculations. […] The measures are then calculated as a percent of the pretreatment baseline score.

[2] = tested on: MMP activity in HUVEC cells; assay: Matrix metalloproteinase (MMP) assay by zymography, HUVEC cells; assay type: cell-based, human; settings: FIG. 17 right
Description: (§1) MMP activity in PC-3 and HUVEC cells were carried out by zymography (J Vis Exp, e2445). […] After that, the gels were incubated at renaturing buffer for 30 min, followed with incubation at zymography developing buffer for 30 min at room temperature, and replaced with fresh developing buffer and incubated at 37° C. overnight. The gels were stained by Coomassie blue, and images were recorded and analyzed by NIH Image J software.

[3] = tested on: cancer cells (H-1, PC-3, A375, Met-1); assay: Cancer cell proliferation assay (MTT); assay type: cell-based; settings: times higher than in endothelial cells, FIG. 14
Description: Cells (HUVEC, H-1, PC-3, A375, Met-1) were seeded into 96-well plates at 1.0-1.5×10^3 cells per well in 100 μL complete medium. After 24 h, the medium was replaced with fresh complete medium containing test compounds and the cells were incubated for another 72 hours. Cell viability was assessed by MTT assay (Sigma-Aldrich).

HUVEC cells = assay: HUVEC endothelial tube formation assay; assay type: cell-based, human; settings: treated for 4-6 hours, FIG. 12
Description: Endothelial tube formation assay was carried out using a slightly modified method described by Arnaoutova and Kleinman (Nat. Protocols 5, 628-635). Briefly, 96-well plates were coated with growth-factor reduced Matrigel (50 μL per well, BD Biosciences, San Jose, Calif.) at 37° C. for 30 min. HUVEC cells were seeded into the 96-well plates at 2×10^4 cells per well in 100 μL serum-free F-12K medium with or without test compounds and incubated for 6 h 37° C. in the incubator. Microscope image was recorded and analyzed by NIH Image J software.

[4] = tested on: MMP activity in PC-3 cells; assay: Matrix metalloproteinase (MMP) assay by zymography, PC-3 cells; assay type: cell-based; settings: FIG. 17 left
Description: as §1

5-LOX = biological target: T1, 5-LOX (Homo sapiens, UniProt P09917); assay: Potency against 5-LOX; assay type: biochemical; settings: compared with celecoxib
T1 sequence (P09917 1-674): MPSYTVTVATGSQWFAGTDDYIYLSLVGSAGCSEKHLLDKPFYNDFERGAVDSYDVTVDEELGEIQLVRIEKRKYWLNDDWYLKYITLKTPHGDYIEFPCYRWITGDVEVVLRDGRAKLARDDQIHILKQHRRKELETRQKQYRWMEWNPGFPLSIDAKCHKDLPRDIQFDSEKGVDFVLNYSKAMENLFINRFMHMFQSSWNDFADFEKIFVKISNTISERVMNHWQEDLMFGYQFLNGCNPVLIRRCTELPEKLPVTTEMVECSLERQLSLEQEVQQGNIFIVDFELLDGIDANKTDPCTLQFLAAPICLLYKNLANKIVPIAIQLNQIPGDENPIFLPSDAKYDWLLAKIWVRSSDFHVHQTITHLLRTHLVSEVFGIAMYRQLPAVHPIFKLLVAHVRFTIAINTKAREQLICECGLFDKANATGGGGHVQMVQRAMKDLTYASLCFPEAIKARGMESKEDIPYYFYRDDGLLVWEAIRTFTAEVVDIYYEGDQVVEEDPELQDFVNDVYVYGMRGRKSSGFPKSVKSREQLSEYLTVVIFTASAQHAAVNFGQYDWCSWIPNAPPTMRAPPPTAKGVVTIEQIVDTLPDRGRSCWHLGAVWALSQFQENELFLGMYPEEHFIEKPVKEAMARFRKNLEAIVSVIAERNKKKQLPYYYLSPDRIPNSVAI

[5] = Pharmacokinetics in rats by oral administration
[6] = Pharmacokinetics in mice by oral cassette dosing; assay type: in vivo; settings: oral cassette dosing at 5 mg/kg, blood
Description: All the animal experiments were performed according to protocols approved by the Animal Use and Care Committee of University of California, Davis. […] Each cassette was orally administered to 4 mice at a dose of 5 mg/kg in 120-150 μl of vehicle depending on animal weight. […] The instrument was equipped with a linear ion trap and a Turbo V ion source and was operated in negative ion MRM mode. […] This was maintained for 3 min, then the gradient was returned to 30% solvent B in 2 min. The flow rate was 0.4 mL/min. The injection volume was 10 μL and the samples were kept at 4° C. in the auto sampler.

[7] = 21i in comparison with 21j, rats oral 1 mg/kg
[8] = rats, oral administration at 1 mg/kg (n = 4), blood

NS(=O)(=O)c1ccc(-n2nc(CCCNC(=O)Nc3ccc(C(F)(F)F)cc3)cc2-c2ccccc2)cc1 [Compound 21i, 4-(5-Phenyl-3-{3-[3-(4-trifluoromethyl-phenyl)-ureido]-propyl}-pyrazol-1-yl)-benzenesulfonamide]
Vessel sprouting in mouse aortic ring assay, in words [1]: inhibited vessel sprouting in mouse aortic ring assay in a dose-dependent manner
Anti-allodynic effect, von Frey paw withdrawal, in words (LPS induced allodynia): better in vivo efficacy in a pain model in rats compared to celecoxib and t-AUCB combination therapy; also recorded: superior effect compared to the combination therapies; also recorded: superior anti-allodynic activity; also recorded: more efficient than the combination of celecoxib with t-AUCB
MMP activity, in words [2]: no effect on MMP activity
IC50 in cancer cells relative to endothelial cells [3]: 5-10 times
HUVEC tube formation, in words (HUVEC cells): inhibits endothelial proliferation assay of HUVEC cells
MMP activity, in words [4]: no effect on MMP activity
Potency against 5-LOX, in words (5-LOX): comparable with celecoxib
Higher AUC in rats [5, 7]: 2 fold
Higher Cmax in rats [5, 7]: 2 fold
AUC [5, 8]: 2.764 ± 0.804 µM·h
Cmax [5, 8]: 415 ± 139 nM
Tmax [5, 8]: 1.5 ± 0.6 h
t1/2 [5, 8]: 12.9 ± 3.8 h
AUC [6]: 0.98 µM·h
Cmax [6]: 260 nM
Tmax [6]: 0.8 h
t1/2 [6]: 2.6 h

From patent publication US9096532B2, “Pyrazole inhibitors of COX-2 and sEH” (The Regents of the University of California, priority 2010, dated 2015)
